Ends that are not written are not given here.

We go through eight compounds from patent publication US6417164B1, “Treatment of type II diabetes mellitus with amylin agonists” (Amylin Pharmaceuticals, Inc., priority 1995, dated 2002).

One data set relates to treated test animals. The data set can be described thus: Amylin activity in vivo in treated test animals. The source says:
(§1) These preferred compounds include ^25Pro^26Val^28,29Pro-h-amylin, ^25,28,29Pro-h-amylin (also referred to herein as “AC-0137”), and ^18Arg^25,28Pro-h-amylin.

Data set [1] relates to insulin-stimulated glycogen synthesis in soleus muscle. The data set can be described thus: Soleus muscle assay. On the set-up: species or system rat. The protocol:
Assays of biological activity of amylin agonists, including amylin agonist analogue preparations, in the soleus muscle are performed using previously described methods (Leighton, B. and Cooper, G. J. S., Nature, 335:632-635 (1988); Cooper, G. J. S., et al. Proc. Natl. Acad. Sci. USA 85:7763-7766 (1988)). In summary, amylin agonist activity is assessed by measuring the inhibition of insulin-stimulated glycogen synthesis in soleus muscle. Amylin antagonist activity is assessed by measuring the resumption of insulin-stimulated glycogen synthesis in the presence of 100 nM rat amylin and an amylin antagonist. Concentrations of peptide dissolved in carrier-free buffers are determined by quantitative amino acid analysis, as described therein. The ability of compounds to act as agonists in this assay is determined by measuring EC50 values. Standard errors are determined by fitting of sigmoidal dose response curves using a four parameter logistic equation (De Lean, A., Munson, P. J., Guardabasso, V. and Rodbard, D. (1988) ALLFIT, Version 2.7, National Institute of Child Health and Human Development, N.I.H. Bethesda, Md., 1 diskette). A number of amylin agonists have been characterized using these biological assays.

Data set [2] deals with T1, membrane-bound amylin receptors (Rattus norvegicus, UniProt P32214+Q9JJ74).
T1 construct: A preferred source of the membrane preparations used in the assay is the basal forebrain which comprises membranes from the nucleus accumbens; from tissue; host or cells: basal forebrain membranes (nucleus accumbens and surrounding regions)
T1 sequence (P32214 25-516): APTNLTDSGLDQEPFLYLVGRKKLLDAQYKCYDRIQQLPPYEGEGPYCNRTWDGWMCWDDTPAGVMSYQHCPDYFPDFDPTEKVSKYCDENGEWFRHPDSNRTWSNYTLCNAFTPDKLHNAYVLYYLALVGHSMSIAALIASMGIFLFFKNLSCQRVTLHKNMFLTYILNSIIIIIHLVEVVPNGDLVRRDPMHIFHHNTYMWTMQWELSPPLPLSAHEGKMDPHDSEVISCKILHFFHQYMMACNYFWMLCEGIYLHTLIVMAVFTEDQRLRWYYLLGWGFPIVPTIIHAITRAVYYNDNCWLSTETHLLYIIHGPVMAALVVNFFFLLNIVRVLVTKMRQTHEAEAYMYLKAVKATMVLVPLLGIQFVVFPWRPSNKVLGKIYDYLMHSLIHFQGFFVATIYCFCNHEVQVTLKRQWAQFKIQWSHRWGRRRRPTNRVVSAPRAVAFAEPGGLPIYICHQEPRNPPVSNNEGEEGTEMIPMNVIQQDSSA
T1 sequence (Q9JJ74 27-148): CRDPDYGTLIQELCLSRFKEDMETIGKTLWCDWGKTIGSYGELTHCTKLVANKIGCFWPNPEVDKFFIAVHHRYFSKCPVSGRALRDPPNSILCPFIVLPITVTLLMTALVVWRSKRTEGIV
Nature of the data set: Receptor binding assay (competition with 125I Bolton Hunter rat amylin). The text has this:
The receptor binding assay is described in U.S. Pat. No. 5,264,372, issued Nov. 23, 1993, the disclosure of which is incorporated herein by reference. The receptor binding assay is a competition assay which measures the ability of compounds to bind specifically to membrane-bound amylin receptors. A preferred source of the membrane preparations used in the assay is the basal forebrain which comprises membranes from the nucleus accumbens and surrounding regions. Compounds being assayed compete for binding to these receptor preparations with ^125I Bolton Hunter rat amylin. Competition curves, wherein the amount bound (B) is plotted as a function of the log of the concentration of ligand are analyzed by computer, using analyses by nonlinear regression to a 4-parameter logistic equation (Inplot program; GraphPAD Software, San Diego, Calif.) or the ALLFIT program of DeLean et. al. (ALLFIT, Version 2.7 (NIH, Bethesda, Md. 20892)). Munson, P. and Rodbard, D., Anal. Biochem. 107:220-239 (1980).

A short description of data set [3]: Solubility and stability characteristics compared to human amylin. The class given is physicochemical.
Text: as §1

In the case of des-^1Lys-h-amylin [des-^1Lys-hamylin], the “amylin activity in vivo” value in the data set on treated test animals was “marked hyperlactemia followed by hyperglycemia”.

With ^18Arg^25,28,29Pro-h-amylin, in data set [1], the “amylin agonist action in the soleus muscle assay” value (“amylin agonist action” for short) was “shown to act as amylin agonists” and the “antagonist activity as measured by the soleus muscle assay” value (“antagonist activity as measured” below) is listed as “negligible antagonist activity”. Also, the “competition with amylin in the receptor binding assay” value (“competition with amylin” for short) in data set [2] is “found to compete with amylin”.

With “^28Pro-h-amylin (KCNTATCATQRLANFLVHSSNNFGAILPSTNVGSNTY; ends and bridges not checked; cysteine pairing not given here; UniProt P10997 34-70, looked up, variant S28P) [amylin agonist analogue of human amylin]”, in the data set with treated test animals, the “amylin activity in vivo” value was “marked hyperlactemia followed by hyperglycemia”.

On to des-^1Lys^18Arg^25,28,29Pro-h-amylin, for which, in data set [1], the “amylin agonist action” value is “shown to act as amylin agonists” and the “antagonist activity as measured” value was “negligible antagonist activity”. In addition, the “competition with amylin” value in data set [2] was “found to compete with amylin”.

Consider des-^1Lys^25,28,29Pro-h-amylin, for which, in data set [1], the “amylin agonist action” value was “shown to act as amylin agonists” and the “antagonist activity as measured” value is “negligible antagonist activity”. Also, in data set [2], the “competition with amylin” value was “found to compete with amylin”.

For the compound ^25Pro^26Val^25,28Pro-h-amylin, in data set [1], the “amylin agonist action” value is “shown to act as amylin agonists” and the “antagonist activity as measured” value is recorded as “negligible antagonist activity”. In addition, in data set [2], the “competition with amylin” value is listed as “found to compete with amylin”.

For des-^1Lys^18Arg^25,28Pro-h-amylin, the “amylin activity in vivo” value with treated test animals was “marked hyperlactemia followed by hyperglycemia”. Besides, in data set [1], the “amylin agonist action” value was “shown to act as amylin agonists” and the “antagonist activity as measured” value was “negligible antagonist activity”. Also, the “competition with amylin” value in data set [2] is reported as “found to compete with amylin”.

For `CC[C@H](C)[C@H](NC(=O)[C@@H]1CCCN1C(=O)CNC(=O)[C@H](Cc1ccccc1)NC(=O)[C@H](CC(N)=O)NC(=O)[C@H](CC(N)=O)NC(=O)[C@H](CO)NC(=O)[C@H](CO)NC(=O)[C@H](Cc1c[nH]cn1)NC(=O)[C@@H](NC(=O)[C@H](CC(C)C)NC(=O)[C@H](Cc1ccccc1)NC(=O)[C@H](CC(N)=O)NC(=O)[C@H](C)NC(=O)[C@H](CC(C)C)NC(=O)[C@H](CCCNC(=N)N)NC(=O)[C@H](CCC(N)=O)NC(=O)[C@@H](NC(=O)[C@H](C)NC(=O)[C@@H]1CSSC[C@H](NC(=O)[C@@H](N)CCCCN)C(=O)N[C@@H](CC(N)=O)C(=O)N[C@@H]([C@@H](C)O)C(=O)N[C@@H](C)C(=O)N[C@@H]([C@@H](C)O)C(=O)N1)[C@@H](C)O)C(C)C)C(=O)N[C@@H](CC(C)C)C(=O)N1CCC[C@H]1C(=O)N1CCC[C@H]1C(=O)N[C@H](C(=O)N[C@@H](CC(N)=O)C(=O)N[C@H](C(=O)NCC(=O)N[C@@H](CO)C(=O)N[C@@H](CC(N)=O)C(=O)N[C@H](C(=O)N[C@@H](Cc1ccc(O)cc1)C(N)=O)[C@@H](C)O)C(C)C)[C@@H](C)O` [AC137, ^25,28,29Pro-h-amylin], the stability characteristics result in data set [3] is “more desirable”.
